Laboratory results from ChEMBL document CHEMBL5543157, “Lead Optimization of Butyrolactone I as an Orally Bioavailable Antiallergic Agent Targeting FcγRIIB” (J Med Chem, 2024).
Blank lines part the entries; values can stand above or below the compound they belong to. The source made the active and inactive calls. The rule behind the calls is not given here.

Legend:
RBL-2H3 [1] = assay: Antiallergic activity in rat RBL-2H3 cell model assessed as inhibition rate of IgE-mediated degranulation in by measuring […] at 50 uM relative to control; assay type: functional
RBL-2H3 [2] = assay: Antiallergic activity in rat RBL-2H3 cell model assessed as inhibition rate of IgE-mediated degranulation in by measuring […]; assay type: functional, cell-based
[3] = Clearance in Sprague-Dawley rat at 40 mg/kg, po measured upto 12 hrs by mass spectrometry; assay type: ADME, organism-based; settings: in vivo
Mus musculus [4] = assay: Antiallergic activity against ovalbumin-sensitized food allergic Balb/c mouse model assessed as decrease in IFN-gamma level at 10 mg/kg treated once a day during OVA challenge phase (days 28 to 40) administered by intragastric; assay type: functional, organism-based; settings: route ig, time 13.0 day
Mus musculus [5] = assay: Antiallergic activity against ovalbumin-sensitized food allergic Balb/c mouse model assessed as decrease in IL-4 level at 10 mg/kg treated once a day during OVA challenge phase (days 28 to 40) administered by intragastric; assay type: functional, organism-based; settings: route ig, time 13.0 day
[6] = AUC (0 to 12 hrs) in Sprague-Dawley rat at 10 mg/kg, iv measured upto 12 hrs by mass spectrometry; assay type: ADME, organism-based; settings: in vivo
[7] = Metabolic stability in human liver microsmes assessed as half life measured upto 60 mins by HPLC analysis; assay type: ADME; settings: liver microsomes
[8] = Cmax in Sprague-Dawley rat at 40 mg/kg, po measured upto 12 hrs by mass spectrometry; assay type: ADME, organism-based; settings: in vivo
Mus musculus [9] = assay: Antiallergic activity against ovalbumin-sensitized food allergic Balb/c mouse model assessed as decrease in OVA-specific IgE level treated once a day during OVA challenge phase (days 28 to 40) administered by intragastric; assay type: functional, organism-based; settings: dose 2.5-10 mg/kg, route ig, time 13.0 day
[10] = Half life in Sprague-Dawley rat at 40 mg/kg, po measured upto 12 hrs by mass spectrometry; assay type: ADME, organism-based; settings: in vivo
[11] = Tmax in Sprague-Dawley rat at 40 mg/kg, po measured upto 12 hrs by mass spectrometry; assay type: ADME, organism-based; settings: in vivo
[12] = Oral bioavailability in Sprague-Dawley rat at 40 mg/kg measured upto 12 hrs by mass spectrometry; assay type: ADME, organism-based; settings: in vivo
[13] = Half life in Sprague-Dawley rat at 10 mg/kg, iv measured upto 12 hrs by mass spectrometry; assay type: ADME, organism-based; settings: in vivo
Mus musculus [14] = assay: Antiallergic activity against ovalbumin-sensitized food allergic Balb/c mouse model assessed as decrease in OVA-specific IgG2a level at 2.5 to 10 mg/kg treated once a day during OVA challenge phase (days 28 to 40) administered by intragastric; assay type: functional, organism-based; settings: dose 2.5-10 mg/kg, route ig, time 13.0 day
Mus musculus [15] = assay: Antiallergic activity against passive cutaneous anaphylaxis (PCA) reaction BALB/c mouse model assessed as reduction in BSA/IgE-mediated allergic reaction in ear by measuring extravasation of Evans blue dye pretreated IG for 7 days followed administered with anti-DNP-IgE after 24 hrs treated with DNP-BSA by Evans blue dye based microscopic analysis; assay type: functional, organism-based; settings: dose 2.5-10 mg/kg, time 8.0 day
[16] = Metabolic stability in human liver microsmes assessed as half life in presence of NADPH measured upto 60 mins by HPLC analysis; assay type: ADME; settings: liver microsomes
Mus musculus [17] = assay: Antiallergic activity against ovalbumin-sensitized food allergic Balb/c mouse model assessed as decrease in OVA-specific IgG1 level treated once a day during OVA challenge phase (days 28 to 40) administered by intragastric; assay type: functional, organism-based; settings: dose 2.5-10 mg/kg, route ig, time 13.0 day
[18] = Metabolic stability in human liver microsmes assessed as half life in presence of UDPGA measured upto 60 mins by HPLC analysis; assay type: ADME; settings: liver microsomes
Mus musculus [19] = assay: Antiallergic activity against ovalbumin-sensitized food allergic Balb/c mouse model assessed as decrease in mMCP-1 level at 2.5 to 10 mg/kg treated once a day during OVA challenge phase (days 28 to 40) administered by intragastric; assay type: functional, organism-based; settings: dose 2.5-10 mg/kg, route ig, time 13.0 day
Mus musculus [20] = assay: Antiallergic activity against ovalbumin-sensitized food allergic Balb/c mouse model assessed as suppression of intestinal edema by measuring reduced intestinal damage at 10 mg/kg once a day during OVA challenge phase (days 28 to 40) administered by intragastric; assay type: functional, organism-based; settings: route ig, time 13.0 day
[21] = Clearance in Sprague-Dawley rat at 10 mg/kg, iv measured upto 12 hrs by mass spectrometry; assay type: ADME, organism-based; settings: in vivo
Mus musculus [22] = assay: Antiallergic activity against ovalbumin-sensitized food allergic Balb/c mouse model assessed as suppression of spleen enlargement at 10 mg/kg once a day during OVA challenge phase (days 28 to 40) administered by intragastric; assay type: functional, organism-based; settings: route ig, time 13.0 day
[23] = AUC (0 to 12 hrs) in Sprague-Dawley rat at 40 mg/kg, po measured upto 12 hrs by mass spectrometry; assay type: ADME, organism-based; settings: in vivo
RBL-2H3 [24] = assay: Cytotoxicity against rat RBL-2H3 cells assessed as cell viability at 5 to 100 uM incubated for 24 hrs by CCK8- assay; assay type: toxicity, cell-based; settings: rbl-2h3, 24 h, dose 5-100 µM
[25] = AUC (0 to infinity) in Sprague-Dawley rat at 40 mg/kg, po measured upto 12 hrs by mass spectrometry; assay type: ADME, organism-based; settings: in vivo
[26] = AUC (0 to infinity) in Sprague-Dawley rat at 10 mg/kg, iv measured upto 12 hrs by mass spectrometry; assay type: ADME, organism-based; settings: in vivo
Mus musculus [27] = assay: Antiallergic activity against ovalbumin-sensitized food allergic Balb/c mouse model assessed as decrease in histamine level at 2.5 to 10 mg/kg treated once a day during OVA challenge phase (days 28 to 40) administered by intragastric; assay type: functional, organism-based; settings: dose 2.5-10 mg/kg, route ig, time 13.0 day

SMILES: C=CCOC1=C(c2ccc(OCC=C)cc2)[C@](Cc2ccc(OCC=C)c(CC=C(C)C)c2)(C(=O)OC)OC1=O
inhibition at 50 µM (RBL-2H3 [1]): 18.4%

SMILES: COC(=O)[C@]1(Cc2ccc(OCC=C(C)C)c(CC=C(C)C)c2)OC(=O)C(OCC=C(C)C)=C1c1ccc(OCC=C(C)C)cc1
inhibition at 50 µM (RBL-2H3 [1]): 15.6%

IC50 (RBL-2H3 [2]): 27.9 µM
SMILES: CN1CCC(=C2c3ccccc3CC(=O)c3sccc32)CC1 [KETOTIFEN]

SMILES: COC(=O)[C@]1(Cc2ccc(OC(C)=O)c(CC=C(C)C)c2)OC(=O)C(OC(C)=O)=C1c1ccc(O)cc1
inhibition at 50 µM (RBL-2H3 [1]): 27.8%

SMILES: COC(=O)[C@]1(Cc2ccc(O)c(CC=C(C)C)c2)OC(=O)C(OC)=C1c1ccc(OC)cc1
inhibition at 50 µM (RBL-2H3 [1]): 17.1%

SMILES: COC(=O)[C@]1(Cc2ccc(OC)c(CC=C(C)C)c2)OC(=O)C(OC)=C1c1ccc(OC)cc1
inhibition at 50 µM (RBL-2H3 [1]): 38.7%

CL/F [3]: 90 mL/min/kg
AUC(0-t) at 12 h [6]: 4090 ng·h/mL
half-life [7]: 8.88 h
Cmax [8]: 6110 ng/mL
half-life [10]: 4.1 h
Tmax [11]: 0.2 h
bioavailability [12]: 45.9%
half-life [13]: 2.2 h
half-life [16]: 3.73 h
half-life [18]: 2.22 h
IC50 (RBL-2H3 [2]): 6.7 µM
clearance ([21]; Sprague-Dawley): 45 mL/min/kg
AUC(0-t) at 12 h [23]: 6540 ng·h/mL
AUC(0-inf) [25]: 7560 ng·h/mL
AUC(0-inf) [26]: 4120 ng·h/mL
SMILES: CC(=O)[C@]1(Cc2ccc(O)c(CC=C(C)C)c2)OC(=O)C(O)=C1c1ccc(O)cc1
Activity (Mus musculus [4]): Active
Activity (Mus musculus [5]): Active
Activity (Mus musculus [9]): Dose-Dependent Effect
inhibition at 50 µM (RBL-2H3 [1]): > 90%
Activity (Mus musculus [14]): inactive
Activity (Mus musculus [15]): Dose-Dependent Effect
Activity (Mus musculus [17]): Dose-Dependent Effect
inhibition (RBL-2H3 [2]): Dose-Dependent Effect
Activity (Mus musculus [19]): Active
Activity (Mus musculus [20]): Active
Activity (Mus musculus [22]): Active
Activity (RBL-2H3 [24]): Non-Toxic
Activity (Mus musculus [27]): Active

SMILES: C=CCOC1=C(c2ccc(O)cc2)[C@](Cc2ccc(O)c(CC=C(C)C)c2)(C(=O)OC)OC1=O
inhibition at 50 µM (RBL-2H3 [1]): > 90%

SMILES: COC(=O)[C@]1(Cc2ccc(O)c(CCC(C)C)c2)OC(=O)C(O)=C1c1ccc(O)cc1
inhibition at 50 µM (RBL-2H3 [1]): 47.9%

SMILES: COC(=O)[C@]1(Cc2ccc(O)c(CC=C(C)C)c2)OC(=O)C(OC(=O)C(C)C)=C1c1ccc(O)cc1
inhibition at 50 µM (RBL-2H3 [1]): 36.7%

SMILES: COC(=O)[C@]1(Cc2ccc(OC(=O)C(C)C)c(CC=C(C)C)c2)OC(=O)C(OC(=O)C(C)C)=C1c1ccc(OC(=O)C(C)C)cc1
inhibition at 50 µM (RBL-2H3 [1]): 6.93%

SMILES: COC(=O)[C@]1(Cc2ccc3c(c2)CCC(C)(C)O3)OC(=O)C(O)=C1c1ccc(O)cc1
inhibition at 50 µM (RBL-2H3 [1]): 10.1%

SMILES: COC(=O)[C@]1(Cc2ccc(O)c(CC=C(C)C)c2)OC(=O)C(OC(=O)C(C)C)=C1c1ccc(OC(=O)C(C)C)cc1
inhibition at 50 µM (RBL-2H3 [1]): 21.3%

SMILES: COC(=O)[C@]1(Cc2ccc(O)c(CC=C(C)C)c2)OC(=O)C(OC(C)=O)=C1c1ccc(O)cc1
inhibition at 50 µM (RBL-2H3 [1]): 33.5%

SMILES: CC(C)=CCc1cc(C[C@@]2(CO)OC(=O)C(O)=C2c2ccc(O)cc2)ccc1O
inhibition (RBL-2H3 [1]): inactive
inhibition at 50 µM (RBL-2H3 [1]): 27.7%

SMILES: COC(=O)[C@]1(Cc2ccc(O)c(CC=C(C)C)c2)OC(=O)C(OC)=C1c1ccc(O)cc1
inhibition at 50 µM (RBL-2H3 [1]): 33.2%

SMILES: CC(C)=CCc1cc(C[C@@]2(C=O)OC(=O)C(O)=C2c2ccc(O)cc2)ccc1O
inhibition (RBL-2H3 [1]): Active
inhibition at 50 µM (RBL-2H3 [1]): 63.9%

SMILES: C=CCOC1=C(c2ccc(OCC=C)cc2)[C@](Cc2ccc(O)c(CC=C(C)C)c2)(C(=O)OC)OC1=O
inhibition at 50 µM (RBL-2H3 [1]): 8.95%

AUC(0-t) at 12 h [6]: 21.7 ng·h/mL
half-life [7]: 0.283 h
Cmax [8]: 10.8 ng/mL
half-life [10]: 4.7 h
Tmax [11]: 0.7 h
bioavailability [12]: 33.2%
half-life [13]: 4.1 h
half-life [16]: 0.326 h
half-life [18]: 0.292 h
IC50 (RBL-2H3 [2]): 13.5 µM
CL ([21]; iv, 10 mg/kg, 12 h): 7202 mL/min/kg
AUC(0-t) at 12 h [23]: 28.9 ng·h/mL
AUC(0-inf) [25]: 36.9 ng·h/mL
AUC(0-inf) [26]: 27.8 ng·h/mL
SMILES: COC(=O)[C@]1(Cc2ccc(O)c(CC=C(C)C)c2)OC(=O)C(O)=C1c1ccc(O)cc1
inhibition at 50 µM (RBL-2H3 [1]): > 90%

SMILES: COC(=O)[C@]1(Cc2ccc(OC(C)=O)c(CC=C(C)C)c2)OC(=O)C(OC(C)=O)=C1c1ccc(OC(C)=O)cc1
inhibition at 50 µM (RBL-2H3 [1]): 11.7%
